Consider 26 compounds from US11466016B2, “Pharmaceutical compounds” (priority 2018, dated 2022).

The assay deals with SHP2 (Homo sapiens (Human), UniProt Q06124). The assay can be described thus: SHP2 Biochemical Assay (DiFMUP conversion, pIRS1 activating peptide). The procedure:
SHP2 activity was monitored by measuring the conversion of the surrogate substrate 6,8-difluoromethylumbelliferyl phosphate (DiFMUP) to the fluorescent product, 6,8-difluoromethylumbelliferone (DiFMU).
SHP2 was pre-incubated with test compounds and the activating peptide pIRS1 (H2N-LN(pY)IDLDLV-(PEG)8-LST(pY)ASINFQK-amide) for 30 min, prior to addition of the […] (DiFMUP), (Thermo Fisher D6567). […] Rates of reaction were then measured over 30 min by monitoring fluorescence on a BMG Pherastar reader at excitation 360 nm/emission 450 nm. IC50 values were calculated from the normalized dose-response plots using four parameter logistic curve fit.

Where [1] appears, read: DiFMUP substrate, 0.25 μM pIRS1 peptide, 30 min pre-incubation, average where more than one data point, read-out: SHP2 (IC50).

Structures are written as SMILES. Counter-ions that a name gives are not always drawn. Like-named read-outs stand apart in the source and are kept apart here.

SHP2, sequence (Q06124 whole entry): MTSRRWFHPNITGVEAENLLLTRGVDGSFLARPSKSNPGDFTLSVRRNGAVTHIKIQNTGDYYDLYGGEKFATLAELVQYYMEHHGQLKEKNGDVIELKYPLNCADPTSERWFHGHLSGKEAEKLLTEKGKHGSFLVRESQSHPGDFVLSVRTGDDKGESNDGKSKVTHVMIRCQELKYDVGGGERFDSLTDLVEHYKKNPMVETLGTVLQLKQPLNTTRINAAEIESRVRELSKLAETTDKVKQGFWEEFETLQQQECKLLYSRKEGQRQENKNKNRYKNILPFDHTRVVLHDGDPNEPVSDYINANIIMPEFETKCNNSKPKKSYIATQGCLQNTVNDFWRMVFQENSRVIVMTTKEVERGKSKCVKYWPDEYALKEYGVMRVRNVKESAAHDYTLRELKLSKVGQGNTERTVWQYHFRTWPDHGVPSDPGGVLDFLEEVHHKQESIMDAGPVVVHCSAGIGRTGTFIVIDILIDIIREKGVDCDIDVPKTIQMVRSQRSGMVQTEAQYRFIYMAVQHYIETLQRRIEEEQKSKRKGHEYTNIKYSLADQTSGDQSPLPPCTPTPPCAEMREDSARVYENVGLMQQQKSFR

One may read the IC50 as the concentration that gives 50% inhibition. Regarding `N[C@H]1C[C@@H]2CC[C@H]([C@H]1F)N2c1nc2[nH]nc(-c3ccc4ncsc4c3Cl)c2nc1CO` [Example 114, {6-[(1R,2S,3S,5S)-3-amino-2-fluoro-8-azabicyclo[3.2.1]octan-8-yl]-3-(7-chloro-1,3-benzothiazol-6-yl)-1H-pyrazolo[3,4-b]pyrazin-5-yl}methanol], the IC50 under setting [1] stood at 3 nM.

Turning to `COc1cnc2ccc(-c3n[nH]c4nc(N5[C@@H]6CC[C@H]5C[C@@](C)(N)C6)c(CO)nc34)c(Cl)c2n1` [Example 134, {6-[endo-3-amino-3-methyl-8-azabicyclo[3.2.1]octan-8-yl]-3-(5-chloro-3-methoxyquinoxalin-6-yl)-1H-pyrazolo[3,4-b]pyrazin-5-yl}methanol], the IC50 under setting [1] was found to be 10 nM.

With `Cn1cc2c(Cl)c(-c3c[nH]c4nc(N5[C@H]6CC[C@@H]5[C@@H](F)[C@H](N)C6)cnc34)ccc2n1` [Example 67, (1R,2S,3R,5S)-8-[7-(4-chloro-2-methyl-2H-indazol-5-yl)-5H-pyrrolo[2,3-b]pyrazin-3-yl]-2-fluoro-8-azabicyclo[3.2.1]octan-3-amine], the IC50 under setting [1] amounted to 57 nM.

With `Cc1nc2c(-c3ccc4nn(C)cc4c3Cl)n[nH]c2nc1N1CC[C@H](N)[C@H](F)C1` [Example 75, (3R,4S)-1-[3-(4-chloro-2-methyl-2H-indazol-5-yl)-5-methyl-1H-pyrazolo[3,4-b]pyrazin-6-yl]-3-fluoropiperidin-4-amine, hydrochloride], the IC50 under setting [1] is 130 nM.

Consider `Cn1nc2ccc(-c3n[nH]c4nc(N5CCC(C)(N)CC5)c(CO)nc34)c(Cl)c2c1Cl` [Example 110, [6-(4-amino-4-methylpiperidin-1-yl)-3-(3,4-dichloro-2-methyl-2H-indazol-5-yl)-1H-pyrazolo[3,4-b]pyrazin-5-yl]methanol], for which the IC50 under setting [1] came out at 7 nM.

Consider `Cn1cc2c(Cl)c(-c3c[nH]c4nc(N5[C@@H]6CC[C@H]5[C@H](F)[C@@H](N)C6)cnc34)ccc2n1` [Example 65, (1S,2R,3S,5R)-8-[7-(4-chloro-2-methyl-2H-indazol-5-yl)-5H-pyrrolo[2,3-b]pyrazin-3-yl]-2-fluoro-8-azabicyclo[3.2.1]octan-3-amine], for which, under setting [1], the IC50 was found to be 37 nM.

`COc1cc2c(Cl)c(-c3n[nH]c4nc(N5[C@H]6CC[C@@H]5[C@@H](F)[C@@H](N)C6)c(CO)nc34)ccc2nc1C` [Example 100, {6-[(1R,2S,3S,5S)-3-amino-2-fluoro-8-azabicyclo[3.2.1]octan-8-yl]-3-(5-chloro-3-methoxy-2-methylquinolin-6-yl)-1H-pyrazolo[3,4-b]pyrazin-5-yl}methanol]: under setting [1], the IC50 came out at 12 nM.

In the case of `Cc1nc2ccc(-c3n[nH]c4nc(N5[C@@H]6CC[C@H]5[C@@H](F)[C@@H](N)C6)c(CO)nc34)c(Cl)c2s1` [Example 140, {6-[(1S,2S,3S,5R)-3-amino-2-fluoro-8-azabicyclo[3.2.1]octan-8-yl]-3-(7-chloro-2-methyl-1,3-benzothiazol-6-yl)-1H-pyrazolo[3,4-b]pyrazin-5-yl}methanol], the IC50 under setting [1] worked out at 7.7 nM.

Compound `N[C@H]1C[C@H]2CC[C@@H](C1)N2c1cnc2c(-c3ccc4nc(C5CCOC5)sc4c3Cl)c[nH]c2n1` (stereo partly drawn) [Example 39, endo-8-{7-[7-chloro-2-(oxolan-3-yl)-1,3-benzothiazol-6-yl]-5H-pyrrolo[2,3-b]pyrazin-3-yl}-8-azabicyclo[3.2.1]octan-3-amine, dihydrochloride salt] registered an IC50 of 6.9 nM.

Regarding `Cc1nc2c(-c3ccc4nn(C)cc4c3Cl)[nH]nc2nc1N1[C@@H]2CC[C@H]1CC(N)C2` (stereo partly drawn) [Example 48, endo-8-[3-(4-Chloro-2-methyl-2H-indazol-5-yl)-5-methyl-1H-pyrazolo[3,4-b]pyrazin-6-yl]-8-azabicyclo[3.2.1]octan-3-amine, hydrochloride salt], under setting [1], the IC50 came to 17 nM.

On to `Cn1nc2ccc(-c3c[nH]c4nc(N5[C@H]6CC[C@@H]5[C@@H](F)[C@@H](N)C6)c(CO)nc34)c(Cl)c2c1Cl` [Example 122, {3-[(1R,2S,3S,5S)-3-amino-2-fluoro-8-azabicyclo[3.2.1]octan-8-yl]-7-(3,4-dichloro-2-methyl-2H-indazol-5-yl)-5H-pyrrolo[2,3-b]pyrazin-2-yl}methanol], for which, under setting [1], the IC50 stood at 5.2 nM.

In the case of `Cc1c(-c2n[nH]c3nc(N4[C@@H]5CC[C@H]4[C@@H](F)[C@@H](N)C5)c(CO)nc23)ccc2nn(C)c(Cl)c12` [Example 141, {6-[(1S,2S,3S,5R)-3-amino-2-fluoro-8-azabicyclo[3.2.1]octan-8-yl]-3-(3-chloro-2,4-dimethyl-2H-indazol-5-yl)-1H-pyrazolo[3,4-b]pyrazin-5-yl}methanol], under setting [1], the IC50 was 13 nM.

Regarding `CN(C)c1nc2ccc(-c3c[nH]c4nc(N5[C@@H]6CC[C@H]5C[C@@H](N)C6)cnc34)c(Cl)c2s1` [Example 18, 6-{3-[endo-3-amino-8-azabicyclo[3.2.1]octan-8-yl]-5H-pyrrolo[2,3-b]pyrazin-7-yl}-7-chloro-N,N-dimethyl-1,3-benzothiazol-2-amine, hydrochloride salt], under setting [1], the IC50 stood at 13 nM.

For `Cc1nc2c(-c3ccc4nn(C)cc4c3Cl)c[nH]c2nc1N1CCC(C)(N)CC1` [Example 14, 1-[7-(4-chloro-2-methyl-2H-indazol-5-yl)-2-methyl-5H-pyrrolo[2,3-b]pyrazin-3-yl]-4-methylpiperidin-4-amine], the IC50 under setting [1] was 89 nM.

With `Cn1cc2c(Cl)c(-c3c[nH]c4nc(N5[C@@H]6CC[C@H]5C[C@@H](N)C6)cnc34)cc(F)c2n1` [Example 50, endo-8-[7-(4-chloro-7-fluoro-2-methyl-2H-indazol-5-yl)-5H-pyrrolo[2,3-b]pyrazin-3-yl]-8-azabicyclo[3.2.1]octan-3-amine], the IC50 under setting [1] is 31 nM.

As to `Cn1cc2c(Cl)c(-c3c[nH]c4nc(N5CCC6(CC5)CNC6)cnc34)ccc2n1` [Example 10, 7-[7-(4-chloro-2-methyl-2H-indazol-5-yl)-5H-pyrrolo[2,3-b]pyrazin-3-yl]-2,7-diazaspiro[3.5]nonane], under setting [1], the IC50 was determined as 14 nM.

Consider `CN(C)c1cnc2ccc(-c3n[nH]c4nc(N5[C@H]6CC[C@@H]5[C@@H](F)[C@@H](N)C6)c(CO)nc34)c(Cl)c2n1` [Example 118, {6-[(1R,2S,3S,5S)-3-amino-2-fluoro-8-azabicyclo[3.2.1]octan-8-yl]-3-[5-chloro-3-(dimethylamino)quinoxalin-6-yl]-1H-pyrazolo[3,4-b]pyrazin-5-yl}methanol], for which the IC50 under setting [1] was 5.3 nM.

As for `Cn1nc2ccc(-c3n[nH]c4nc(N5[C@@H]6CC[C@H]5[C@@H](F)[C@@H](N)C6)c(CO)nc34)c(F)c2c1Cl` [Example 87, {6-[(1S,2S,3S,5R)-3-amino-2-fluoro-8-azabicyclo[3.2.1]octan-8-yl]-3-(3-chloro-4-fluoro-2-methyl-2H-indazol-5-yl)-1H-pyrazolo[3,4-b]pyrazin-5-yl}methanol], the IC50 under setting [1] is 8 nM.

`Cc1nc2c(-c3ccc4ncc(N(C)C)nc4c3Cl)n[nH]c2nc1N1[C@@H]2CC[C@H]1C[C@@H](N)C2` [Example 136, 7-{6-[endo-3-amino-8-azabicyclo[3.2.1]octan-8-yl]-5-methyl-1H-pyrazolo[3,4-b]pyrazin-3-yl}-8-chloro-N,N-dimethylquinoxalin-2-amine]: the IC50 under setting [1] was 9 nM.

`Cn1nc2ccc(-c3n[nH]c4nc(N5[C@@H]6CC[C@H]5C[C@@H](O)C6)c(CO)nc34)c(Cl)c2c1Cl` [Example 115, endo-8-[3-(3,4-dichloro-2-methyl-2H-indazol-5-yl)-5-(hydroxymethyl)-1H-pyrazolo[3,4-b]pyrazin-6-yl]-8-azabicyclo[3.2.1]octan-3-ol]: the “SHP2 (percent at stated concentration)” value was 50%@0.30 uM.

`Cc1nc2ccc(-c3c[nH]c4nc(N5[C@@H]6CC[C@H]5C[C@@H](N)C6)cnc34)c(Cl)c2c(=O)n1C` [Example 52, 6-{3-[endo-3-amino-8-azabicyclo[3.2.1]octan-8-yl]-5H-pyrrolo[2,3-b]pyrazin-7-yl}-5-chloro-2,3-dimethyl-3,4-dihydroquinazolin-4-one, methanesulfonic acid salt] gave an IC50 of 13 nM.

With `CN(C)C(=O)c1nc2ccc(-c3c[nH]c4nc(N5[C@@H]6CC[C@H]5C[C@@H](N)C6)cnc34)c(Cl)c2s1` [Example 59, 6-{3-[endo-3-amino-8-azabicyclo[3.2.1]octan-8-yl]-5H-pyrrolo[2,3-b]pyrazin-7-yl}-7-chloro-N,N-dimethyl-1,3-benzothiazole-2-carboxamide, hydrochloride salt], the IC50 under setting [1] was 18 nM.

As for `Cc1nc2c(-c3ccc4nn(C)cc4c3Cl)n[nH]c2nc1N1CCC2(CC1)CNC2` [Example 94, 7-[3-(4-Chloro-2-methyl-2H-indazol-5-yl)-5-methyl-1H-pyrazolo[3,4-b]pyrazin-6-yl]-2,7-diazaspiro[3.5]nonane], the IC50 under setting [1] came to 70 nM.

Turning to `Cc1nc2c(-c3ccc4ncc(N5CCOCC5)nc4c3Cl)n[nH]c2nc1N1[C@H]2CC[C@@H]1[C@@H](F)[C@@H](N)C2` [Example 148, (1R,2S,3S,5S)-8-{3-[5-chloro-3-(morpholin-4-yl)quinoxalin-6-yl] 5-methyl-1H-pyrazolo[3,4-b]pyrazin-6-yl}-2-fluoro-8-azabicyclo[3.2.1]octan-3-amine], under setting [1], the IC50 amounted to 25 nM.

With `CCOc1cnc2ccc(-c3n[nH]c4nc(N5[C@H]6CC[C@@H]5[C@@H](F)[C@@H](N)C6)c(C)nc34)c(Cl)c2n1` [Example 139, (1R,2S,3S,5S)-8-[3-(5-chloro-3-ethoxyquinoxalin-6-yl)-5-methyl-1H-pyrazolo[3,4-b]pyrazin-6-yl]-2-fluoro-8-azabicyclo[3.2.1]octan-3-amine], the IC50 under setting [1] was found to be 22 nM.

As for `Cn1nc2ccc(-c3n[nH]c4nc(N5[C@@H]6CC[C@H]5C[C@@H](N)C6)c(CO)nc34)c(Cl)c2c1Cl` [Example 88, {6-[endo-3-amino-8-azabicyclo[3.2.1]octan-8-yl]-3-(3,4-dichloro-2-methyl-2H-indazol-5-yl)-1H-pyrazolo[3,4-b]pyrazin-5-yl}methanol], the IC50 under setting [1] was found to be 7.1 nM.
